What all share (assay): microbe, parasite or virus in culture
The subject of test [1] is Pseudomonas aeruginosa MB 5890 (OprD+, efflux−). The format is cell-based.
Test [2] concerns MB9862: MB 5890 Trans pFlp-Vim1 (OprD+, efflux−). The format is cell-based, Pseudomonas aeruginosa.
The subject of test [3] is MB 9799: MB 5890 Trans IMP1 plasmid (OprD+, efflux−). The format is cell-based, Pseudomonas aeruginosa.
The subject of test [4] is MB 9861: MB 5919 Trans pFlp-Vim1 plasmid (OprD+, efflux+). The class given is cell-based, Pseudomonas aeruginosa.
Test [5] has as its system MB 9798: MB 5919 Trans IMP1 plasmid (OprD+, efflux+). The format is cell-based, Pseudomonas aeruginosa.
In test [6] the test system is MB 5919 Trans pFlp-Vim2 plasmid (OprD+, efflux+). The format is cell-based, Pseudomonas aeruginosa.
Test [7] has as its system Pseudomonas aeruginosa MB 5919 (OprD+, efflux+). The class given is cell-based.
Test [8] has as its system MB 5890 Trans pFlp-Vim2 plasmid (OprD+, efflux−). The format is cell-based, Pseudomonas aeruginosa.
Setting [9] is: MB9862 = MB 5890 Trans pFlp-Vim1, OprD+, efflux−.
Where [10] appears, read: MB 9799 = MB 5890 Trans IMP1 plasmid, OprD+, efflux−.
Where [11] appears, read: MB 9861 = MB 5919 Trans pFlp-Vim1 plasmid, OprD+, efflux+.
Setting [12] is: MB 9798 = MB 5919 Trans IMP1 plasmid, OprD+, efflux+.
[13] abbreviates: MB 5919 Trans pFlp-Vim2 plasmid, OprD+, efflux+.
Where [14] appears, read: MB 5890 Trans pFlp-Vim2 plasmid, OprD+, efflux−.

Values after ≈ are worked out from the molar mass of the structure shown.

Take `C[C@@H](O)[C@H]1C(=O)N2C(C(=O)O)=C(S[C@@H]3CN[C@H](C(=O)N(C)C)C3)[C@H](C)[C@H]12` [Meropenem, meropenem]: the MIC in test [1] (MB 5890, OprD+, efflux−) is 0.5 µg/mL (≈ 1.3 µM); in test [2] (setting [9]) it was 64 µg/mL (≈ 167 µM); in test [3] (setting [10]), 64 µg/mL (≈ 167 µM); in test [4] (setting [11]) it was greater than 64 µg/mL; in test [5] (setting [12]) it was greater than 64 µg/mL; in test [6] (setting [13]), greater than 64 µg/mL. In addition, the MIC amounted to 2 µg/mL (≈ 5.22 µM) in test [7] (MB 5919, OprD+, efflux+) and 32 µg/mL (≈ 83.4 µM) in test [8] (setting [14]).
In the case of `O=C(N[C@H](CO)[C@H](O)c1ccc([N+](=O)[O-])cc1)C(Cl)Cl` [Chloroamphenicol, chloramphenicol], the MIC in test [1] (Pseudomonas aeruginosa) is 1 µg/mL (≈ 3.09 µM); in test [2] (Pseudomonas aeruginosa), 2 µg/mL (≈ 6.19 µM); in test [3] (Pseudomonas aeruginosa), 1 µg/mL (≈ 3.09 µM); in test [4] (Pseudomonas aeruginosa), greater than 64 µg/mL; in test [5] (Pseudomonas aeruginosa), greater than 64 µg/mL; in test [6] (Pseudomonas aeruginosa), greater than 64 µg/mL. Moreover, the MIC in test [7] (Pseudomonas aeruginosa) is greater than 64 µg/mL; in test [8] (Pseudomonas aeruginosa), 1 µg/mL (≈ 3.09 µM).
As for `CC(C)(O/N=C(\C(=O)N[C@@H]1C(=O)N2C(C(=O)[O-])=C(C[n+]3ccccc3)CS[C@H]12)c1csc(N)n1)C(=O)O` [CAZ, ceftazidime], the MIC in test [1] (MB 5890, OprD+, efflux−) was 0.5 µg/mL (≈ 0.915 µM); in test [2] (setting [9]) it was greater than 256 µg/mL; in test [3] (setting [10]), 256 µg/mL (≈ 468 µM); in test [4] (setting [11]) it was greater than 256 µg/mL; in test [5] (setting [12]), 256 µg/mL (≈ 468 µM); in test [6] (setting [13]), 128 µg/mL (≈ 234 µM). For the same compound, the MIC in test [7] (MB 5919, OprD+, efflux+) was 1 µg/mL (≈ 1.83 µM); in test [8] (setting [14]), 64 µg/mL (≈ 117 µM).
Consider `CCN1CCN(C(=O)N[C@@H](C(=O)N[C@@H]2C(=O)N3[C@@H]2SC(C)(C)[C@@H]3C(=O)O)c2ccccc2)C(=O)C1=O` [Piperalln, piperacillin], for which the MIC in test [1] (MB 5890, OprD+, efflux−) was 1 µg/mL (≈ 1.93 µM); in test [2] (setting [9]), 128 µg/mL (≈ 247 µM); in test [3] (setting [10]) it was 4 µg/mL (≈ 7.73 µM); in test [4] (setting [11]), greater than 256 µg/mL; in test [5] (setting [12]) it was 4 µg/mL (≈ 7.73 µM); in test [6] (setting [13]) it was greater than 256 µg/mL. Besides, the MIC in test [7] (MB 5919, OprD+, efflux+) turned out to be 2 µg/mL (≈ 3.86 µM); in test [8] (setting [14]), 128 µg/mL (≈ 247 µM).
Consider `CC[C@H]1OC(=O)[C@H](C)[C@@H](O[C@H]2C[C@@](C)(OC)[C@@H](O)[C@H](C)O2)[C@H](C)[C@@H](O[C@@H]2O[C@H](C)C[C@H](N(C)C)[C@H]2O)[C@](C)(O)C[C@@H](C)CN(C)[C@H](C)[C@@H](O)[C@]1(C)O` [Azithromycin], for which the MIC amounted to 1 µg/mL (≈ 1.34 µM) in test [1] (Pseudomonas aeruginosa); 1 µg/mL (≈ 1.34 µM) in test [2] (Pseudomonas aeruginosa); 2 µg/mL (≈ 2.67 µM) in test [3] (Pseudomonas aeruginosa); 32 µg/mL (≈ 42.7 µM) in test [4] (Pseudomonas aeruginosa); 16 µg/mL (≈ 21.4 µM) in test [5] (Pseudomonas aeruginosa); 32 µg/mL (≈ 42.7 µM) in test [6] (Pseudomonas aeruginosa). Besides, the MIC in test [7] (Pseudomonas aeruginosa) amounted to 16 µg/mL (≈ 21.4 µM); in test [8] (Pseudomonas aeruginosa) it was 1 µg/mL (≈ 1.34 µM).
`C[C@@H](O)[C@H]1C(=O)N2C(C(=O)O)=C(SCCN=CN)C[C@H]12` [Imipenem, imipenem]: the MIC is 2 µg/mL (≈ 6.68 µM) in test [1] (MB 5890, OprD+, efflux−); 64 µg/mL (≈ 214 µM) in test [2] (setting [9]); 32 µg/mL (≈ 107 µM) in test [3] (setting [10]); greater than 64 µg/mL in test [4] (setting [11]); 64 µg/mL (≈ 214 µM) in test [5] (setting [12]); greater than 64 µg/mL in test [6] (setting [13]). Moreover, the MIC is 4 µg/mL (≈ 13.4 µM) in test [7] (MB 5919, OprD+, efflux+) and 32 µg/mL (≈ 107 µM) in test [8] (setting [14]).

The values above are taken from patent US10221163B2 (priority 2015, dated 2019).
